Laboratory results from paper PMC5572076 (Xenobiotica; the fate of foreign compounds in biological …, 2016).
“Also recorded” adds a separate entry of the source. Read-outs that look alike come from different tables or passages of the source.

Key:
[1] = mice, cited from earlier work
Human MRP4 = target: T1, Human MRP4 (Homo sapiens, UniProt O15439); assay: Vesicular uptake assay, MRP4 membrane vesicles
T1 sequence (O15439 1-1325): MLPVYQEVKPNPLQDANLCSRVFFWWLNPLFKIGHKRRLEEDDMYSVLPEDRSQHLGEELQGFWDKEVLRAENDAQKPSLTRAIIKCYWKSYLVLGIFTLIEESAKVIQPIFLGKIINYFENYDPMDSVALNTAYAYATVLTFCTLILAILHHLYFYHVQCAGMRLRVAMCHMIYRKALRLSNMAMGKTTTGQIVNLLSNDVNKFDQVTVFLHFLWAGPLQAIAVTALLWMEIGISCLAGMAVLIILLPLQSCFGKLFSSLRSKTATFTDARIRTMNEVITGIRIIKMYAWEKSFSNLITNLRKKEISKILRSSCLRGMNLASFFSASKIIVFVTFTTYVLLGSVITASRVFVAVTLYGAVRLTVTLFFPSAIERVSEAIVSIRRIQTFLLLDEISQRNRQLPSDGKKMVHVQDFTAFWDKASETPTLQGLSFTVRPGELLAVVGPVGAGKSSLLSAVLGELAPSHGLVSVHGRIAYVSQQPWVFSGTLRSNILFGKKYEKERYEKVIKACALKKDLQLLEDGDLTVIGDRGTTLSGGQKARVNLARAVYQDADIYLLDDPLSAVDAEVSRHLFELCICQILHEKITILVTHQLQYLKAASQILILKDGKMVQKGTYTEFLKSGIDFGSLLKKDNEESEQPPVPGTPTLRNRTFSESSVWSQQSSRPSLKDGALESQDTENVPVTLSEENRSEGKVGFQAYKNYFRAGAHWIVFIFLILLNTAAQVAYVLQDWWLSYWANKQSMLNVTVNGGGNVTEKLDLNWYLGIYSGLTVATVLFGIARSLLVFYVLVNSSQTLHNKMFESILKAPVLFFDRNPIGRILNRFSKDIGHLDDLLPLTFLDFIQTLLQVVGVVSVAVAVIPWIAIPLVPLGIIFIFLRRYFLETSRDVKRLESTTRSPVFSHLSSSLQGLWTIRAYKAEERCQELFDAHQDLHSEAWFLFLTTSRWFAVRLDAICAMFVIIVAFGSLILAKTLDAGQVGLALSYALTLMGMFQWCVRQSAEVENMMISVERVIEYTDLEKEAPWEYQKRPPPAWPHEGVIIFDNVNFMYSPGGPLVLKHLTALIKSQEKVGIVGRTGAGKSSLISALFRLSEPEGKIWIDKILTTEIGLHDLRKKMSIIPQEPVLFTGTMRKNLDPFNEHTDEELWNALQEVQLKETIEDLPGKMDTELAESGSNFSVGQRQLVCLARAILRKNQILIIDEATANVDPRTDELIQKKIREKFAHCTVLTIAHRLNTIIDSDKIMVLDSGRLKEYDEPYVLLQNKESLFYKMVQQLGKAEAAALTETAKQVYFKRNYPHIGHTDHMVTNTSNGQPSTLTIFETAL

[2] = given into the carotid artery, rats; ref Neuwelt et al., 2001; cited from earlier work
[3] = assay type: in vivo, Sprague-Dawley rats
Human MRP1 = Human MRP1 (Homo sapiens, UniProt P33527); assay: Vesicular uptake assay, MRP1 membrane vesicles
[4] = ref Borgstrom et al., 1986; cited from earlier work
[5] = NAC plasma pharmacokinetics with or without probenecid, intraperitoneal; assay type: in vivo, Sprague-Dawley rats; conditions: juvenile rats
[6] = ref Giustarini et al., 2012; cited from earlier work
human OAT3 = target: T2, human OAT3 (Homo sapiens, UniProt Q8TCC7); assay: 14C-NAC uptake in HEK-OAT3 cells
T2 sequence (Q8TCC7 1-542): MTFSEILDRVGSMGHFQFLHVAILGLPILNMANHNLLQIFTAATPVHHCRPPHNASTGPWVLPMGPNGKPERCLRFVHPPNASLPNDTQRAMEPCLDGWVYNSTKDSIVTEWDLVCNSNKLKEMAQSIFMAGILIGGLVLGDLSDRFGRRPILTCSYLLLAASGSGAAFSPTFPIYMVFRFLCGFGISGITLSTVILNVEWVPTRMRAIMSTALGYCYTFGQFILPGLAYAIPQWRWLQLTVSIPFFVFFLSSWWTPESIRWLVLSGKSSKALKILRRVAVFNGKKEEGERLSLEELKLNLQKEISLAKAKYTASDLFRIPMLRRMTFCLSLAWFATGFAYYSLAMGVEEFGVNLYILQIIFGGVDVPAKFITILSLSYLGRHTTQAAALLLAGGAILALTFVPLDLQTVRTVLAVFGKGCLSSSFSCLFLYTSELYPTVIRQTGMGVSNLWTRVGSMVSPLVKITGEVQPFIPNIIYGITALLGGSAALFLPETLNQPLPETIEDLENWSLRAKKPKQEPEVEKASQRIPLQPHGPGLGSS

human OAT1 = target: T3, human OAT1 (Homo sapiens, UniProt Q4U2R8)
T3 sequence (Q4U2R8 1-563): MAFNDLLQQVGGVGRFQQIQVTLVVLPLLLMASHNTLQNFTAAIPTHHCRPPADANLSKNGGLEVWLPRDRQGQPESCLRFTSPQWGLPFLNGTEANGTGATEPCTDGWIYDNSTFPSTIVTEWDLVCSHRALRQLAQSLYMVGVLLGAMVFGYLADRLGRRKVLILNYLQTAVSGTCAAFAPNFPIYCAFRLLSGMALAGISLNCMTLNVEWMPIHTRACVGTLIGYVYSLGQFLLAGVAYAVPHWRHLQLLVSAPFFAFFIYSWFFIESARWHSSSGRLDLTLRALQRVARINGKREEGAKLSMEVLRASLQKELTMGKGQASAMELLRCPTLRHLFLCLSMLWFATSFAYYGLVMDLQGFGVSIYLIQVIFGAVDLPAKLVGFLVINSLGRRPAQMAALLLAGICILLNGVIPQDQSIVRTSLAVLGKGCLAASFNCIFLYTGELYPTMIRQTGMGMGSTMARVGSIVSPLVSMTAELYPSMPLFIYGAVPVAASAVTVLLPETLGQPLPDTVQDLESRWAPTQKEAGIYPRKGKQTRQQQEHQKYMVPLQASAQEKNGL

HEK-EV cells = assay: 14C-NAC uptake in HEK-empty vector control cells; assay type: in vitro ADME, human; conditions: 200 μM probenecid, 25 min, n = 3
[7] = OAT3-overexpressing cells, 25 μM NAC
[8] = in vitro uptake and inhibition experiments

Chain of Human MRP1 (P33527 whole entry): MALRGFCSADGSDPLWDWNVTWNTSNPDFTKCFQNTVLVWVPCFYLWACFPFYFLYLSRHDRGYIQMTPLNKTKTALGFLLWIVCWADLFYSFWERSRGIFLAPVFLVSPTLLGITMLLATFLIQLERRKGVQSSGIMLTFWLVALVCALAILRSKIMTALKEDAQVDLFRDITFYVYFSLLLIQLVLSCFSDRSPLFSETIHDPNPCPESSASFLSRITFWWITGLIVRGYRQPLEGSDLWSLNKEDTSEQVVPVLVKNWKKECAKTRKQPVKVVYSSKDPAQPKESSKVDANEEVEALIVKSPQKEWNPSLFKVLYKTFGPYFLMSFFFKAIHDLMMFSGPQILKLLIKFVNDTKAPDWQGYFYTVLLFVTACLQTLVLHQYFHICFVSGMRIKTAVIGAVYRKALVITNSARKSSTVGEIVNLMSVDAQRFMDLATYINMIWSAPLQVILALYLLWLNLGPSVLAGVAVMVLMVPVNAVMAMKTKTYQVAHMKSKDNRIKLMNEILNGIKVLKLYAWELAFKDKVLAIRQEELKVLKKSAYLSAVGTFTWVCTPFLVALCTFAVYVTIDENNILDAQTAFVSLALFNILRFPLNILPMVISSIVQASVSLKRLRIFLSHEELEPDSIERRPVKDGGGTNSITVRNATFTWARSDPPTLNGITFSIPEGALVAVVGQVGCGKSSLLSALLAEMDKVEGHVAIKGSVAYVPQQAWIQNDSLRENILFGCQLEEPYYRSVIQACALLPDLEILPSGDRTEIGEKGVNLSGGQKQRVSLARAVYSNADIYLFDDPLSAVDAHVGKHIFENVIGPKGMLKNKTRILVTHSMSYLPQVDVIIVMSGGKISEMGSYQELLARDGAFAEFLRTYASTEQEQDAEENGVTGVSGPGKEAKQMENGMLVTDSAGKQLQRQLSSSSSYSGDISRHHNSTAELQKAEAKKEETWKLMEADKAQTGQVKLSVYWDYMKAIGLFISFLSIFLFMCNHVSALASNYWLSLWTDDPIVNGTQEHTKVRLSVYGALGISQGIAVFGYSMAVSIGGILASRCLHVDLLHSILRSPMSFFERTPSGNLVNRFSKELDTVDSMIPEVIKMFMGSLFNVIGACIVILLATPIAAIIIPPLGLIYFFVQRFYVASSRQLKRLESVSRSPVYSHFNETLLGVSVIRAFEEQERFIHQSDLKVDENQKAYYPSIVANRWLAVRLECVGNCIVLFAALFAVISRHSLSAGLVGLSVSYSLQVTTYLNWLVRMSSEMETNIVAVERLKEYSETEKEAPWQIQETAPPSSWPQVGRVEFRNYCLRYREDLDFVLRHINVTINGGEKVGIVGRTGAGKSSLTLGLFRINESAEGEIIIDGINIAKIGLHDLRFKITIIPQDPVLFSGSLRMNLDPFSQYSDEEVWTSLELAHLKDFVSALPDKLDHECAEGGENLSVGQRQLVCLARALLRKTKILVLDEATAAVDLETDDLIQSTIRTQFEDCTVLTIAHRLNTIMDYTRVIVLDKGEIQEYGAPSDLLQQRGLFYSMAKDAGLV

## CC(=O)N[C@@H](CS)C(N)=O
[1]; IP and oral administration, ref Offen et al., 2004
  detection in the brain: able to detect

## C[C@]12CC[C@@H]3c4ccc(O)cc4CC[C@H]3[C@@H]1CC[C@@H]2O[C@@H]1O[C@H](C(=O)O)[C@@H](O)[C@H](O)[C@H]1O [E217βG, estradiol-17β-D- glucuronide]
Human MRP4; MRP4 vesicles, 0.25–100 μM, 0.5 minutes
  ATP-dependent uptake of positive control substrate: saturable uptake

## CC(=O)N[C@@H](CS)C(=O)O [NAC, N-acetylcysteine]
[2]
  crossing of the BBB: can cross the BBB
[3]; NAC and probenecid group, up to last sampling time point (8 h)
  NAC brain levels at late time points: remained measurable
[3]; NAC only group, 6 h and 8 h time points
  NAC brain levels at late time points: below the limit of quantificaiton; also recorded: below limit of quantification
Human MRP1; MRP1 vesicles, 25 μM NAC
  ATP-dependent, transporter-mediated uptake of NAC vs AMP (negative control): No uptake; also recorded: not statistically different
Human MRP1; membrane vesicles
  substrate status for MRP1: not a substrate
[1]; IP administration, ref Erickson et al., 2012
  levels in the brain: low levels of NAC were measurable
[4]
  renally eliminated: approximately 30%
Human MRP4; MRP4 vesicles, 25 μM NAC
  ATP-dependent, transporter-mediated uptake of NAC vs AMP (negative control): No uptake; also recorded: not statistically different
Human MRP4; membrane vesicles
  substrate status for MRP4: not a substrate
[5]; NAC 163 mg/kg ip alone
  apparent plasma clearance (CL/F): 1113 ± 29 mL/h/kg
[5]; NAC 163 mg/kg ip in combination with probenecid 150 mg/kg ip
  apparent plasma clearance (CL/F): 674 ± 8.2 mL/h/kg
[6]
  log D: −5.4
Human OAT3; HEK-OAT3, 10 min, up to 10 mM NAC
  saturation of concentration-dependent NAC uptake: did not reach saturation
Human OAT3; [7]
  NAC uptake rate: 37.7 ± 1.9 pmol/mg/min
  time up to which NAC uptake is linear: at least 15 minutes
Human OAT3; [8]
  substrate status for OAT3: substrate
Human OAT1; HEK-OAT1, 25 min, up to 10 mM NAC
  saturation of concentration-dependent NAC uptake: did not reach saturation
Human OAT1; OAT1-overexpressing cells, 25 μM NAC
  NAC uptake rate: 4.2 ± 0.1 pmol/mg/min
Human OAT1; OAT1-overexpressing cells, 25 μM NAC, latest time point measured
  time up to which NAC uptake is linear: ≥ 42.5 min
Human OAT1; [8]
  substrate status for OAT1: substrate

## CCCN(CCC)S(=O)(=O)c1ccc(C(=O)O)cc1 [probenecid]
HEK-EV cells
  effect of probenecid on NAC uptake by control cells: no difference
Human OAT3; OAT3, 200 μM probenecid pre-incubation 5 min, 10 min uptake, n = 3
  decrease of NAC uptake by probenecid: 93.9%
